Measured values reported in US20240122179A1, “AUXINIC HERBICIDES AND METHODS OF USE THEREOF” (CORTEVA AGRISCIENCE LLC, priority 2021, published 2024).
Read-outs that look alike come from different tables or passages of the source.

Key:
[1] = tested on: Amaranthus rudis (AMATA); experiment: Postemergence herbicide evaluation, percent reduction in plant size vs untreated control, 21 days after treatment; assay type: in vivo, Amaranthus rudis (tall water hemp); conditions: Amaranthus tuberculatus, post-emergence, 504 h, read-out: Control/Injury
In short: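 Greenhouse-grown tall waterhemp (25-28° C, 16 h light) at the 2-8 leaf stage, treated by track sprayer at 187 L/ha with compound at 140 or 280 g ae/ha in acetone/DMSO-based spray solution with crop oil and surfactant. 3-4 replicates per treatment, randomized complete block; plant size reduction versus untreated control measured 21 days after treatment.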

[2] = tested on: Amaranthus palmeri (AMAPA); experiment: as above; assay type: in vivo, Amaranthus palmeri (Palmer amaranth); conditions: post-emergence, 504 h, read-out: Control/Injury
In short: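 Greenhouse-grown Palmer amaranth (25 to 28° C, 16 h light) sprayed postemergence at the 2 to 8 leaf stage with 140 or 280 g ae/ha in acetone/DMSO-based solution containing crop oil concentrate, 187 L/ha by track sprayer. Three to four replicates; plant size measured 21 days after treatment as percent reduction versus untreated control.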

[3] = tested on: Glycine max; experiment: whole plant or invertebrate; conditions: for plant injury at 140 g/ha / plant injury at 280 g/ha: Glycine max, post-emergence, 504 h, read-out: Control/Injury; for Control/Injury: in vivo
Procedure: Plants were grown in a soil media composed of 90% by volume Promix BX (Premier Tech Horticulture, Quakertown, PA) and 10% Profile Greens Grade (Profile Products LLC, Buffalo Grove, IL). Promix BX contains approximately 83% Sphagnum Peat Moss, 13% Perlite, 5% vermiculite, and proprietary amounts of limestone, starter fertilizer, and wetting agent. Profile Greens Grade is a sand-sized granule formed from calcining illite and montmorillonite clay. Several seeds of each species were planted in 10 cm square pots and top watered twice daily. Plant material was propagated in a warm greenhouse with temperature ranging from 25 to 28° C. and 50 to 60% relative humidity at the Corteva Global Headquarters (Indianapolis, Indiana, USA). Natural light was supplemented with 1000-watt metal halide overhead lamps with an average illumination of 500 μE m^−2 s^−1 photosynthetic active radiation for 16 consecutive hours each day. Plants were top-watered prior to herbicide application and sub-watered after herbicide application.
Appropriate amounts of test materials were weighed out into glass vials in their technical form to deliver either 140 or 280 g acid equivalent (ae)/ha. The samples were dissolved in 3 ml of Solvent 1. Solvent 1 is 97% acetone and 3% dimethyl sulfoxide and serves as a general-purpose solvent (GPS) for dissolving technical materials. […] The samples were then diluted to their final concentration using 17 ml of solvent 2 for a total of 20 ml of spray solution. Solvent 2 contains 41.58% GPS, 45.53% water, 11.88% isopropyl alcohol, 0.99% crop oil concentrate and 0.02% Trition X-155 surfactant. All percentages are listed on a volume basis. Dicamba diglycolamine was applied as a formulated herbicide, Clarity™ and diluted with solvent 2 to compare all materials in the same spray solution.
Herbicide applications were made to 3 to 4 replicates of each plant species at the 2 to 8 leaf stage, depending on the species. Treatments were applied with a research track-sprayer (Generation III Research Sprayer manufactured by DeVries Manufacturing in Hollandale, MN, USA) calibrated to deliver a spray volume of 187 L/ha. The track-sprayer was fitted with an 8003E nozzle from Spray Systems Company (North Avenue and Schmale Road, P.O. Box 7900, Wheaton, IL 60187), and used a spray pressure of 276 kPa pressure and a speed of 3.1 km/h. The nozzle height was 46 cm above the plant canopy. The experimental design used for the trials was a randomized complete block with 3 or 4 replications per treatment. After application, plants were placed on carts according to the randomization and returned to the greenhouse. Plants were sub-watered after treatment with Indianapolis city water or fertilized three times a week with a commercial fertilizer solution (Jack's Professional 15-5-15 4 Ca 2 Mg fertilizer (manufactured by JR PETERS INC., 6656 Grant Way, Allentown, PA 18106; www.jrpeters.com). Percent visual control assessments were made on a scale of 0 to 100% (where 0 was no control and 100 was complete plant death) at 7, 14, and 21 days after treatment.
In conformity with the methods outlined in Example 49, the effect of representative experimental compounds on the growth of Glycine max was determined at 2 different levels (respectively, 140 and 280 g acid equivalent (ae)/ha) of the experimental actives tested. Plants were treated with one of the compounds, a control plant was not treated. Twenty-one days after treatment, the plants were measured. The data is present as a percent reduction in plant size relative to the untreated control.

[4] = tested on: Conyza canadensis (L.) (ERICA); experiment: Postemergence herbicide evaluation, percent reduction in plant size vs untreated control, 21 days after treatment; assay type: in vivo, Conyza canadensis (L.) (Horseweed); conditions: Erigeron canadensis, post-emergence, 504 h, read-out: Control/Injury
In short: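 Horseshoe-weed (horseweed) seedlings at 2 to 8 leaf stage in greenhouse (25-28° C, 16 h light), sprayed postemergence at 140 or 280 g ae/ha in acetone/DMSO-based spray solution, 187 L/ha track-sprayer. Randomized complete block, 3-4 replicates; plant size measured 21 days after treatment as percent reduction vs untreated controls.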

[5] = tested on: Kochia scoparia (KCHSC); experiment: as above; assay type: in vivo; conditions: Bassia scoparia, post-emergence, 504 h, read-out: Control/Injury
In short: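 Greenhouse-grown plants (25-28 °C, 16 h light) at the 2 to 8 leaf stage were track-sprayed postemergence at 140 or 280 g ae/ha in acetone/DMSO-based spray solution with crop oil and surfactant, at 187 L/ha, in 3-4 randomized replicates.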

[6] = tested on: Ambrosia artemisiifolia (AMBEL); experiment: as above; assay type: in vivo, Ambrosia artemisiifolia (common ragweed); conditions: post-emergence, 504 h, read-out: Control/Injury
In short: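 Greenhouse-grown plants (25–28 °C, 16 h light) were sprayed postemergence at the 2–8 leaf stage with 140 or 280 g ae/ha in acetone/DMSO-based spray solution with crop oil and surfactant, at 187 L/ha by track sprayer. There were 3–4 replicates. Plant size was measured 21 days after treatment versus untreated plants.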

[7] = AMATA, rate 140 g ae/ha, postemergence
[8] = AMATA, rate 280 g ae/ha, postemergence
[9] = R-AMAPA, rate 140 g ae/ha, postemergence, percent reduction vs untreated control, 21 days after treatment
[10] = R-AMAPA, rate 280 g ae/ha, postemergence, percent reduction vs untreated control, 21 days after treatment
[11] = ERICA, rate 140 g ae/ha, postemergence, percent reduction vs untreated control, 21 days after treatment
[12] = ERICA, rate 280 g ae/ha, postemergence, percent reduction vs untreated control, 21 days after treatment
[13] = KCHSC, rate 140 g ae/ha, postemergence
[14] = AMBEL, rate 140 g ae/ha, postemergence
[15] = AMBEL, rate 280 g ae/ha, postemergence
[16] = KCHSC, rate 140 g ae/ha, postemergence, percent reduction vs untreated, 21 days after treatment
[17] = KCHSC, rate 280 g ae/ha, postemergence, percent reduction vs untreated, 21 days after treatment
[18] = KCHSC, rate 280 g ae/ha, postemergence, percent reduction vs untreated control, 21 days after treatment
[19] = KCHSC, rate 140 g ae/ha, postemergence, percent reduction vs untreated control, 21 days after treatment

Compound | pest or weed control at 140 g/ha [1, 7] [%] | pest or weed control at 280 g/ha [1, 8] [%] | pest or weed control at 140 g/ha [2, 9] [%] | pest or weed control at 280 g/ha [2, 10] [%] | plant injury at 140 g/ha [3] [%] | plant injury at 280 g/ha [3] [%] | pest or weed control at 140 g/ha [4, 11] [%] | pest or weed control at 280 g/ha [4, 12] [%] | pest or weed control at 140 g/ha [6, 14] [%] | pest or weed control at 280 g/ha [6, 15] [%] | pest or weed control at 280 g/ha [5, 18] [%] | pest or weed control at 140 g/ha [5, 19] [%] | further results
COc1c(Cl)ccc(Cl)c1C(=O)ON(C)C(=O)Nc1ccccc1 [Compound A-75] | 58 | 85 | 73 | 91 | 3 | 3 | 72 | 73 | 82 | 88 |  |  | pest or weed control at 140 g/ha [5, 13]: 88%; pest or weed control at 280 g/ha ([5]; KCHSC, rate 280 g ae/ha, postemergence): 97%
COc1c(Cl)ccc(Cl)c1C(=O)O/N=C/c1cccc(/C=N/OC(=O)c2c(Cl)ccc(Cl)c2OC)c1 [Compound A-143] | 73 | 48 | 70 | 64 |  |  |  |  | 86 | 86 |  |  | Control/Injury [3]: 0; pest or weed control at 140 g/ha ([4]; ERICA, rate 140 g ae/ha, postemergence, percent reduction vs untreated, 21 days after treatment): 80%; pest or weed control at 280 g/ha ([4]; ERICA, rate 280 g ae/ha, postemergence, percent reduction vs untreated, 21 days after treatment): 93%; pest or weed control at 140 g/ha [5, 16]: 88%; pest or weed control at 280 g/ha [5, 17]: 88%
COc1c(Cl)ccc(Cl)c1C(=O)Oc1cc(C(F)(F)F)n(C)n1 [Compound A-118] | 68 | 80 |  |  |  |  |  |  | 80 | 97 |  |  | pest or weed control at 140 g/ha ([2]; AMAPA, rate 140 g ae/ha, postemergence): 63%; pest or weed control at 280 g/ha ([2]; AMAPA, rate 280 g ae/ha, postemergence): 73%; Control/Injury [3]: 8; pest or weed control at 140 g/ha ([4]; ERICA, rate 140 g ae/ha, postemergence): 93%; pest or weed control at 280 g/ha ([4]; ERICA, rate 280 g ae/ha, postemergence): 96%; pest or weed control at 140 g/ha [5, 16]: 83%; pest or weed control at 280 g/ha [5, 17]: 99%
COc1c(Cl)ccc(Cl)c1C(=O)NS(=O)(=O)c1ccc(C)cc1 [Compound A-78] | 12 | 20 | 23 | 32 | 25 | 67 | 5 | 15 | 45 | 57 | 85 |  | pest or weed control at 140 g/ha [5, 13]: 50%
CCO/C(C)=N\OC(=O)c1c(Cl)ccc(Cl)c1OC [Compound A-93] | 60 | 75 | 68 | 80 | 10 | 5 | 63 | 80 | 68 | 90 | 93 | 77 | 
COc1c(Cl)ccc(Cl)c1C(=O)O/N=C(\C#N)c1ccccc1 [Compound A-84] |  |  |  |  | 8 | 38 |  |  |  |  |  |  | pest or weed control at 140 g/ha [1]: 17%; pest or weed control at 280 g/ha [1]: 27%; pest or weed control at 140 g/ha [2]: 33%; pest or weed control at 280 g/ha [2]: 28%; pest or weed control at 140 g/ha [4]: 37%; pest or weed control at 280 g/ha [4]: 78%; pest or weed control at 140 g/ha [5]: 68%; pest or weed control at 280 g/ha [5]: 85%; pest or weed control at 140 g/ha [6]: 70%; pest or weed control at 280 g/ha [6]: 78%
CCCCCC(=O)NOC(=O)c1c(Cl)ccc(Cl)c1OC [Compound A-80] | 33 | 38 | 20 | 35 | 2 | 4 | 20 | 23 | 63 | 62 | 22 | 13 | 
CO/C(=N\OC(=O)c1c(Cl)ccc(Cl)c1OC)c1ccccc1 [Compound A-83] | 65 | 65 | 70 | 83 | 22 | 15 | 90 | 97 | 93 | 87 | 94 | 85 | 
